# According to patent US8597875B2, “Method for diagnosing liver toxicity with sex specific biomarkers” (BASF SE, priority 2008, dated 2013):
# Experiments:
# male rats = test: Plasma metabolite profiling (GC-MS/LC-MS) for liver toxicity markers, 28-day gavage study, male rats; assay type: in vivo, rat; details: male rats
# Procedure: (§1) A group of each 5 male and female rats was dosed once daily with the indicated compounds (see tables below) at 10 and 100 mg/kg body weight per gavage over 28 days. Additional groups of each 5 male and female animals served as controls. Before starting the treatment period, animals, which were 62-64 days old when supplied, were acclimatized to the housing and environmental conditions for 7 days. All animals of the animal population were kept under the same constant temperature (20-24±3° C.) and the same constant humidity (30-70%). Each animal of the animal population was kept in a separate cage. The animals of the animal population are fed ad libitum. The food to be used was be essentially free of chemical or microbial contaminants. Drinking water was also offered ad libitum. Accordingly, the water was be free of chemical and microbial contaminants as laid down in the European Drinking Water Directive 98/83/EG. The illumination period was 12 hours light followed by 12 hours darkness (12 hours light, from 6:00 to 18:00, and 12 hours darkness, from 18:00 to 6:00).
# (§2) In the morning of day 7, 14, and 28, blood was taken from the retroorbital venous plexus from fasted anaesthetized animals. From each animal, 1 ml of blood was collected with EDTA as anticoagulant. The samples were be centrifuged for generation of plasma. All plasma samples were covered with a N2 atmosphere and then stored at −80° C. until analysis.
# (§3) For mass spectrometry-based metabolite profiling analyses plasma samples were extracted and a polar and a non-polar fraction was obtained. For GC-MS analysis, the non-polar fraction was treated with methanol under acidic conditions to yield the fatty acid methyl esters. Both fractions were further derivatised with O-methyl-hydroxyamine hydrochloride and pyridine to convert Oxo-groups to O-methyloximes and subsequently with a silylating agent before analysis. In LC-MS analysis, both fractions were reconstituted in appropriate solvent mixtures. HPLC was performed by gradient elution on reversed phase separation columns. For mass spectrometric detection metanomics proprietary technology was applied which allows target and high sensitivity MRM (Multiple Reaction Monitoring) profiling in parallel to a full screen analysis.
# (§4) Following comprehensive analytical validation steps, the data for each analyte were normalized against data from pool samples. These samples were run in parallel through the whole process to account for process variability. The significance of treatment group values specific for sex, dose group and metabolite was determined by comparing means of the treated groups to the means of the respective untreated control groups using WELCH-test. Normalized treatment group values and their significance were fed into a database for further statistics and data mining processes.
# (§5) The changes of the group of plasma metabolites being indicative for liver toxicity after treatment of the rats are shown in the following tables: […]
# female rats = test: Plasma metabolite profiling (GC-MS/LC-MS) for liver toxicity markers, 28-day gavage study, female rats; assay type: in vivo, rat; details: female rats, fh7 (day 7)
# Procedure: as §1, §2, §3, §4, §5
smiles,measurement,setting,value
C1CCOC1 [Tetrahydrofuran],"1,2-Dioleoyl-sn-glycero-3-phosphatidyl-L-serine, change of plasma metabolite",male rats; mh7 (day 7),1.70
same,"4-Hydroxysphingosine, change of plasma metabolite",male rats; mh7 (day 7),2.67
same,"Arachidonic acid (C20:cis-[5,8,11,14]4), change of plasma metabolite",male rats; mh7 (day 7),1.71
same,"Behenic acid (C22:0), change of plasma metabolite",male rats; mh7 (day 7),1.35
same,"Ceramide (d18:1, C24:0), change of plasma metabolite",male rats; mh7 (day 7),1.37
same,"Ceramide (d18:1, C24:1), change of plasma metabolite",male rats; mh7 (day 7),1.53
same,"Cholesterol, change of plasma metabolite",male rats; mh7 (day 7),1.81
same,"Docosahexaenoic acid (C22:cis[4,7,10,13,16,19]6), change of plasma metabolite",male rats; mh7 (day 7),2.52
same,"Eicosatrienoic acid, change of plasma metabolite",male rats; mh7 (day 7),3.13
same,"Glycerolphosphate, lipid fraction, change of plasma metabolite",male rats; mh7 (day 7),1.94
same,"Heptadecanoic acid (C17:0), change of plasma metabolite",male rats; mh7 (day 7),1.52
same,"Lignoceric acid (C24:0), change of plasma metabolite",male rats; mh7 (day 7),1.62
same,"Linoleic acid (C18:cis[9,12]2), change of plasma metabolite",male rats; mh7 (day 7),1.52
same,"Nervonic acid (C24:1), change of plasma metabolite",male rats; mh7 (day 7),1.88
same,"Palmitic acid (C16:0), change of plasma metabolite",male rats; mh7 (day 7),1.48
same,"Phosphatidylcholine (C18:0/C22:6), change of plasma metabolite",male rats; mh7 (day 7),1.83
same,"Phosphatidylcholine (C18:2, C20:4), change of plasma metabolite",male rats; mh7 (day 7),1.52
same,"Sphingomyelin (d18:1, C16:0), change of plasma metabolite",male rats; mh7 (day 7),1.46
same,"Tricosanoic acid (C23:0), change of plasma metabolite",male rats; mh7 (day 7),1.51
same,"alpha-Tocopherol, change of plasma metabolite",male rats; mh7 (day 7),2.61
same,"myo-Inositol-2-monophosphate, lipid fraction, change of plasma metabolite",male rats; mh7 (day 7),1.70
same,"1,2-Dioleoyl-sn-glycero-3-phosphatidyl-L-serine, change of plasma metabolite",male rats; mh14 (day 14),1.81
same,"4-Hydroxysphingosine, change of plasma metabolite",male rats; mh14 (day 14),2.56
same,"Arachidonic acid (C20:cis-[5,8,11,14]4), change of plasma metabolite",male rats; mh14 (day 14),1.64
same,"Behenic acid (C22:0), change of plasma metabolite",male rats; mh14 (day 14),1.77
same,"Ceramide (d18:1, C24:0), change of plasma metabolite",male rats; mh14 (day 14),1.55
same,"Ceramide (d18:1, C24:1), change of plasma metabolite",male rats; mh14 (day 14),1.48
same,"Cholesterol, change of plasma metabolite",male rats; mh14 (day 14),1.98
same,"Docosahexaenoic acid (C22:cis[4,7,10,13,16,19]6), change of plasma metabolite",male rats; mh14 (day 14),2.37
same,"Eicosatrienoic acid, change of plasma metabolite",male rats; mh14 (day 14),3.76
same,"Glycerolphosphate, lipid fraction, change of plasma metabolite",male rats; mh14 (day 14),1.93
same,"Heptadecanoic acid (C17:0), change of plasma metabolite",male rats; mh14 (day 14),1.54
same,"Lignoceric acid (C24:0), change of plasma metabolite",male rats; mh14 (day 14),1.71
same,"Linoleic acid (C18:cis[9,12]2), change of plasma metabolite",male rats; mh14 (day 14),1.46
same,"Nervonic acid (C24:1), change of plasma metabolite",male rats; mh14 (day 14),1.87
same,"Palmitic acid (C16:0), change of plasma metabolite",male rats; mh14 (day 14),1.49
same,"Phosphatidylcholine (C18:0/C22:6), change of plasma metabolite",male rats; mh14 (day 14),1.71
same,"Phosphatidylcholine (C18:2, C20:4), change of plasma metabolite",male rats; mh14 (day 14),1.46
same,"Sphingomyelin (d18:1, C16:0), change of plasma metabolite",male rats; mh14 (day 14),1.45
same,"Tricosanoic acid (C23:0), change of plasma metabolite",male rats; mh14 (day 14),1.74
same,"alpha-Tocopherol, change of plasma metabolite",male rats; mh14 (day 14),2.23
same,"myo-Inositol-2-monophosphate, lipid fraction, change of plasma metabolite",male rats; mh14 (day 14),2.40
same,"1,2-Dioleoyl-sn-glycero-3-phosphatidyl-L-serine, change of plasma metabolite",male rats; mh28 (day 28),1.84
same,"4-Hydroxysphingosine, change of plasma metabolite",male rats; mh28 (day 28),2.64
same,"Arachidonic acid (C20:cis-[5,8,11,14]4), change of plasma metabolite",male rats; mh28 (day 28),1.76
same,"Behenic acid (C22:0), change of plasma metabolite",male rats; mh28 (day 28),1.65
same,"Ceramide (d18:1, C24:0), change of plasma metabolite",male rats; mh28 (day 28),1.40
same,"Ceramide (d18:1, C24:1), change of plasma metabolite",male rats; mh28 (day 28),1.18
same,"Cholesterol, change of plasma metabolite",male rats; mh28 (day 28),2.03
same,"Docosahexaenoic acid (C22:cis[4,7,10,13,16,19]6), change of plasma metabolite",male rats; mh28 (day 28),2.02
same,"Eicosatrienoic acid, change of plasma metabolite",male rats; mh28 (day 28),3.77
same,"Glycerolphosphate, lipid fraction, change of plasma metabolite",male rats; mh28 (day 28),2.15
same,"Heptadecanoic acid (C17:0), change of plasma metabolite",male rats; mh28 (day 28),1.51
same,"Lignoceric acid (C24:0), change of plasma metabolite",male rats; mh28 (day 28),1.57
same,"Linoleic acid (C18:cis[9,12]2), change of plasma metabolite",male rats; mh28 (day 28),1.50
same,"Nervonic acid (C24:1), change of plasma metabolite",male rats; mh28 (day 28),1.97
same,"Palmitic acid (C16:0), change of plasma metabolite",male rats; mh28 (day 28),1.36
same,"Phosphatidylcholine (C18:0/C22:6), change of plasma metabolite",male rats; mh28 (day 28),1.32
same,"Phosphatidylcholine (C18:2, C20:4), change of plasma metabolite",male rats; mh28 (day 28),1.18
same,"Sphingomyelin (d18:1, C16:0), change of plasma metabolite",male rats; mh28 (day 28),1.39
same,"Tricosanoic acid (C23:0), change of plasma metabolite",male rats; mh28 (day 28),1.55
same,"alpha-Tocopherol, change of plasma metabolite",male rats; mh28 (day 28),2.15
same,"myo-Inositol-2-monophosphate, lipid fraction, change of plasma metabolite",male rats; mh28 (day 28),2.70
same,"1,2-Dioleoyl-sn-glycero-3-phosphatidyl-L-serine, change of plasma metabolite",female rats,1.49
same,"4-Hydroxysphinganine, change of plasma metabolite",female rats,1.98
same,"Arachidonic acid (C20:cis-[5,8,11,14]4), change of plasma metabolite",female rats,1.85
same,"Behenic acid (C22:0), change of plasma metabolite",female rats,1.52
same,"Ceramide (d18:1, C24:0), change of plasma metabolite",female rats,1.85
same,"Cholesterol, change of plasma metabolite",female rats,2.18
same,"Docosahexaenoic acid (C22:cis[4,7,10,13,16,19]6), change of plasma metabolite",female rats,3.22
same,"Glycerol, lipid fraction, change of plasma metabolite",female rats,1.89
same,"Glycerolphosphate, lipid fraction, change of plasma metabolite",female rats,1.77
same,"Heptadecanoic acid (C17:0), change of plasma metabolite",female rats,1.72
same,"ID28x493, change of plasma metabolite",female rats,2.44
same,"Lignoceric acid (C24:0), change of plasma metabolite",female rats,1.59
same,"Linoleic acid (C18:cis[9,12]2), change of plasma metabolite",female rats,2.43
same,"Nervonic acid (C24:1), change of plasma metabolite",female rats,1.54
same,"Palmitic acid (C16:0), change of plasma metabolite",female rats,1.97
same,"Phosphate, lipid (Phospholipids), change of plasma metabolite",female rats,1.37
same,"Stearic acid (C18:0), change of plasma metabolite",female rats,1.60
same,"TAG No 1, change of plasma metabolite",female rats,1.66
same,"Threonic acid, change of plasma metabolite",female rats,1.92
same,"Tricosanoic acid (C23:0), change of plasma metabolite",female rats,1.80
